In one experiment the target is FGFR2 (Homo sapiens (Human), UniProt P21802). Put plainly: FGFR Enzymatic Assay (FRET peptide phosphorylation), FGFR2. Type of experiment: biochemical. As for the experimental part: (§1) The inhibitor potency of the exemplified compounds was measured in an enzyme assay that measures peptide phosphorylation using FRET measurements to detect product formation. Inhibitors were serially diluted in DMSO and a volume of 0.5 μL was transferred to the wells of a 384-well plate.
(§2) The enzymes were purchased from Millipore or Invitrogen.
(§3) GraphPad prism3 was used to analyze the data.

In a further experiment the target is FGFR3 enzyme (Homo sapiens (Human), UniProt P22607). Put plainly: FGFR Enzymatic Assay (FRET peptide phosphorylation), FGFR3. As to conditions: for FGFR1/FGFR3 IC50 ratio / FGFR4/FGFR3 IC50 ratio: FGFR3 selectivity. Format: biochemical. The method, then: as §1, §3
The target of another experiment is FGFR4 (Homo sapiens (Human), UniProt P22455). Put plainly: FGFR Enzymatic Assay (FRET peptide phosphorylation), FGFR4. Type of experiment: biochemical. The method, then: as §1, §2, §3
In another experiment the target is FGFR1 (Homo sapiens (Human), UniProt P11362). Briefly: FGFR Enzymatic Assay (FRET peptide phosphorylation), FGFR1.
[1] abbreviates: pre-incubated for 4 hours, read-out: FGFR3 IC50.
Where [2] appears, read: FGFR1 IC50 (nM), pre-incubated for 4 hours.
[3] abbreviates: pre-incubated for 5 to 10 minutes.
The mark [4] stands for this setting: FGFR4 selectivity, pre-incubated for 4 hours.

Read-outs that look alike come from different tables or passages of the source.

A word on the IC50: it is the concentration needed to halve the response being measured.

Sequence of FGFR1 (P11362 22-822): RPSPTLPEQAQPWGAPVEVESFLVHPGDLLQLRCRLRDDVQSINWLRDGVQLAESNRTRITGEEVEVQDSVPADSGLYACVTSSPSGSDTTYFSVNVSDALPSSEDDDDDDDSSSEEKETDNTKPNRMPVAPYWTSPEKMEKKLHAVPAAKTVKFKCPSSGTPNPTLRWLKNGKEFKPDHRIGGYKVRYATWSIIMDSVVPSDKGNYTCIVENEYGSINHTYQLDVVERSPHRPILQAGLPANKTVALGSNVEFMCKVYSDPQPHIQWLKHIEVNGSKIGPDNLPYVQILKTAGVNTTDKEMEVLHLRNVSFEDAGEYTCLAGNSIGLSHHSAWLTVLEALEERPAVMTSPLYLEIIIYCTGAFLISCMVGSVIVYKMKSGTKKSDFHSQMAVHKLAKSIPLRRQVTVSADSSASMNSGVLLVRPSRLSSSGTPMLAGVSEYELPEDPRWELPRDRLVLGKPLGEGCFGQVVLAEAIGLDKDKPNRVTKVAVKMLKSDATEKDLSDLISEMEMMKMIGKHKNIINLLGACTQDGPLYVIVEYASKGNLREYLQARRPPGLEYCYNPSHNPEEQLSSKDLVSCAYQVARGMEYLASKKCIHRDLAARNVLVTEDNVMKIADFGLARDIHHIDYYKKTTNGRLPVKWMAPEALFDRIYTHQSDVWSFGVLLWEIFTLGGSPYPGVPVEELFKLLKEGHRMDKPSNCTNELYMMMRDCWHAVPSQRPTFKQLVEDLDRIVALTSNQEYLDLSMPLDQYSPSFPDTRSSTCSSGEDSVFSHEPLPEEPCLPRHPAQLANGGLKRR
Sequence of FGFR4 (P22455 22-802): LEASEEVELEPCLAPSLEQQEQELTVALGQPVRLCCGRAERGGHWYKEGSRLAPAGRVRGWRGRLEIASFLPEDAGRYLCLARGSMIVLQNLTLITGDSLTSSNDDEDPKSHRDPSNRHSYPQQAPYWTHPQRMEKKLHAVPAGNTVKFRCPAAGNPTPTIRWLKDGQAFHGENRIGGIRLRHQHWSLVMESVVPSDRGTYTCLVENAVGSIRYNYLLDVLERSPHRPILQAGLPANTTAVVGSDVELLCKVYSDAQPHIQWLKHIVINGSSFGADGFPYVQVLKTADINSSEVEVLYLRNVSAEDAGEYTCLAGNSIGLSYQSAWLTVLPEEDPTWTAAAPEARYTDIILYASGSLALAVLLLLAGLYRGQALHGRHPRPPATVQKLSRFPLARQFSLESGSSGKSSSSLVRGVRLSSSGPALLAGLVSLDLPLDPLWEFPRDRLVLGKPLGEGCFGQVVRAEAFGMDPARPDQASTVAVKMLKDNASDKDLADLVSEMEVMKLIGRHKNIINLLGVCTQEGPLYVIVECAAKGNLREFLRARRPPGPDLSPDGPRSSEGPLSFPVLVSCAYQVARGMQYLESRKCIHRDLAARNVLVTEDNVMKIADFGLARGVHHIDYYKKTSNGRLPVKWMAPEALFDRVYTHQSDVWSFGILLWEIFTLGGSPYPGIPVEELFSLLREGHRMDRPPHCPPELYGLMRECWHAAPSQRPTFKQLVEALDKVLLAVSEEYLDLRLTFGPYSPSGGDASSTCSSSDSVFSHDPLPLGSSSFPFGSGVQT
Sequence of FGFR2 (P21802 22-821): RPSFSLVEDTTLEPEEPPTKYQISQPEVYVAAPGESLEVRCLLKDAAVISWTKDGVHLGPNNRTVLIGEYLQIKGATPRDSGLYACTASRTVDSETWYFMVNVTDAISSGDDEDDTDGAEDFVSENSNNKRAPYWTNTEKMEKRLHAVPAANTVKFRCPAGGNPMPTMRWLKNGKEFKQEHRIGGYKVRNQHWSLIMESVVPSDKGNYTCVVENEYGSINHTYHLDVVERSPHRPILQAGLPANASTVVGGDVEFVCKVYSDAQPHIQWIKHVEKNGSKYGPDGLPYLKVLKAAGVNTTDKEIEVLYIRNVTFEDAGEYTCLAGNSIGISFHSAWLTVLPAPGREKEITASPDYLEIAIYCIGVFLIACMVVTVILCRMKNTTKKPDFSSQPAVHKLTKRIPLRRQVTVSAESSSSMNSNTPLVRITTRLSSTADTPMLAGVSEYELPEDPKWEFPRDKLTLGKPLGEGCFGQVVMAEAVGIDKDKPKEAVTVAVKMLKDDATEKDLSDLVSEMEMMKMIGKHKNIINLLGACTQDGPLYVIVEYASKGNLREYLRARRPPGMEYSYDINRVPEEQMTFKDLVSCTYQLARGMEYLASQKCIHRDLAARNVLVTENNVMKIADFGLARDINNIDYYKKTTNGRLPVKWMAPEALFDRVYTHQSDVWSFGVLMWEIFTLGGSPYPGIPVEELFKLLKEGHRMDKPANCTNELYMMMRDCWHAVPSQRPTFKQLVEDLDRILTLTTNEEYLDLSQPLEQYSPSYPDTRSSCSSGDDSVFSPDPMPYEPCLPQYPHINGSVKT
Sequence of FGFR3 enzyme (P22607 23-806): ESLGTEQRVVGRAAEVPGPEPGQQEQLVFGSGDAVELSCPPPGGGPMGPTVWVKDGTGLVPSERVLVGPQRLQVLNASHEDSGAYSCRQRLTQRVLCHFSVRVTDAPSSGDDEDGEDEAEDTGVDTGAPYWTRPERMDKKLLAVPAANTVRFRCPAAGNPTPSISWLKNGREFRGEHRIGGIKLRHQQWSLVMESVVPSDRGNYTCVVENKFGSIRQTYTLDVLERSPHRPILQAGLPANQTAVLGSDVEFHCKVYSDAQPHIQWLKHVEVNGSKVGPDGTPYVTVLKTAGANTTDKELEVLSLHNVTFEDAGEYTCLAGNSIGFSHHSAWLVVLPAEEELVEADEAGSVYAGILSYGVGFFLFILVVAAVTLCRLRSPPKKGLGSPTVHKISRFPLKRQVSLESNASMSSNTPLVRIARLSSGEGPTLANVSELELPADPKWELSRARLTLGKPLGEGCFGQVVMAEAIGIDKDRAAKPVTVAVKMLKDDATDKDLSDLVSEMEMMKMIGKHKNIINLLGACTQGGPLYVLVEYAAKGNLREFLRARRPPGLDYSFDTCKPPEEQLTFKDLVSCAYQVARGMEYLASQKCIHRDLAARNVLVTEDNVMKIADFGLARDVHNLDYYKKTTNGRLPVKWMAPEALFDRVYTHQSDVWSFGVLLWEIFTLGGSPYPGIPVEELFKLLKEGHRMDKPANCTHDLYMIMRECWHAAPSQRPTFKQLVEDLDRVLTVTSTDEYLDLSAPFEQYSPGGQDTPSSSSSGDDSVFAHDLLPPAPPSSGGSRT

As to `COc1cc(OC)c(F)c(N2Cc3cnc(-c4cn(C)nc4C)cc3N(c3cnccn3)C2=O)c1F` [Example 70, 3-(2,6-difluoro-3,5-dimethoxyphenyl)-7-(1,3-dimethyl-1H-pyrazol-4-yl)-1-(pyrazin-2-yl)-3,4-dihydropyrido[4,3-d]pyrimidin-2(1H)-one], the half-inhibitory concentration (IC50) against FGFR2 (pre-incubated for 4 hours) is 10 to 30 nM; at FGFR3 enzyme (setting [1]), 10 to 30 nM; on FGFR4 (pre-incubated for 4 hours) it was 30 to 200 nM; on FGFR1 (setting [2]), 30 to 200 nM. The “FGFR1/FGFR3 IC50 ratio” value at FGFR3 enzyme (pre-incubated for 4 hours) is listed as more than 5. Besides, the “FGFR4/FGFR3 IC50 ratio” value at FGFR3 enzyme (pre-incubated for 4 hours) is more than 5.

Regarding `COc1cc(OC)c(F)c(N2Cc3cnc(-c4cn(C)nc4C)cc3N(c3ccc4c(c3)CC(=O)N4)C2=O)c1F` [Example 119, 3-(2,6-difluoro-3,5-dimethoxyphenyl)-7-(1,3-dimethyl-1H-pyrazol-4-yl)-1-(2-oxoindolin-5-yl)-3,4-dihydropyrido[4,3-d]pyrimidin-2(1H)-one], the IC50 against FGFR2 (setting [3]) is less than 10 nM; at FGFR3 enzyme (pre-incubated for 5 to 10 minutes, read-out: FGFR3 IC50), less than 10 nM; on FGFR4 (setting [3]), 10 to 30 nM; on FGFR1 (FGFR1 IC50 (nM), pre-incubated for 5 to 10 minutes), 10 to 30 nM.

For the molecule `COc1cc(OC)c(F)c(N2Cc3cnc(-c4nn(C)cc4C#N)cc3C3(CC3)C2=O)c1F` [Example 172, 3-(2′-(2,6-difluoro-3,5-dimethoxyphenyl)-3′-oxo-2′,3′-dihydro-1′H-spiro[cyclopropane-1,4′-[2,7]naphthyridine]-6′-yl)-1-methyl-1H-pyrazole-4-carbonitrile], the IC50 was more than 200 nM on FGFR2 (pre-incubated for 4 hours); more than 200 nM on FGFR3 enzyme (setting [1]); 10 to 30 nM against FGFR4 (pre-incubated for 4 hours); more than 200 nM at FGFR1 (read-out: FGFR1 IC50, pre-incubated for 4 hours). The “FGFR1/FGFR4 IC50 ratio” value at FGFR4 (setting [4]) is more than 50. Besides, the “FGFR2/FGFR4 IC50 ratio” value at FGFR4 (setting [4]) is more than 25. In addition, the “FGFR3/FGFR4 IC50 ratio” value on FGFR4 (setting [4]) is listed as more than 10.

Consider `COc1cc(OC)c(F)c(N2Cc3cnc(-c4cn(C)nc4C)cc3N(C3CCN(S(C)(=O)=O)CC3)C2=O)c1F` [Example 71, 3-(2,6-difluoro-3,5-dimethoxyphenyl)-7-(1,3-dimethyl-1H-pyrazol-4-yl)-1-(1-(methylsulfonyl)piperidin-4-yl)-3,4-dihydropyrido[4,3-d]pyrimidin-2(1H)-one], for which the IC50 against FGFR2 (pre-incubated for 4 hours) is 30 to 200 nM; against FGFR3 enzyme, 10 to 30 nM; on FGFR4 (pre-incubated for 4 hours), 30 to 200 nM; on FGFR1, 30 to 200 nM. For the same molecule, the “FGFR1/FGFR3 IC50 ratio” value on FGFR3 enzyme (pre-incubated for 4 hours) is given as more than 5. The “FGFR4/FGFR3 IC50 ratio” value on FGFR3 enzyme (pre-incubated for 4 hours) was more than 3.

Take `COc1cc(OC)c(F)c(N2Cc3cnc(-c4cn(C)nc4C)cc3N(c3ccc4[nH]ncc4c3)C2=O)c1F` [Example 134, 3-(2,6-difluoro-3,5-dimethoxyphenyl)-7-(1,3-dimethyl-1H-pyrazol-4-yl)-1-(1H-indazol-5-yl)-3,4-dihydropyrido[4,3-d]pyrimidin-2(1H)-one]: the IC50 against FGFR2 (pre-incubated for 4 hours) was less than 10 nM; on FGFR3 enzyme (setting [1]), less than 10 nM; against FGFR4 (pre-incubated for 4 hours), 30 to 200 nM; against FGFR1 (setting [2]) it was 10 to 30 nM. In addition, the “FGFR1/FGFR3 IC50 ratio” value at FGFR3 enzyme (pre-incubated for 4 hours) is more than 3. In addition, the “FGFR4/FGFR3 IC50 ratio” value at FGFR3 enzyme (pre-incubated for 4 hours) is more than 5.

Consider `CCN1C(=O)N(c2c(F)c(OC)cc(OC)c2F)Cc2cnc(-c3ccc(C(C)(C)C#N)nc3)cc21` [Example 26, 2-(5-(3-(2,6-difluoro-3,5-dimethoxyphenyl)-1-ethyl-2-oxo-1,2,3,4-tetrahydropyrido[4,3-d]pyrimidin-7-yl)pyridin-2-yl)-2-methylpropanenitrile], for which the IC50 on FGFR2 (pre-incubated for 4 hours) is less than 10 nM; on FGFR3 enzyme (setting [1]) it was less than 10 nM; at FGFR4 (pre-incubated for 4 hours) it was 10 to 30 nM; on FGFR1 (setting [2]), 10 to 30 nM. In addition, the “FGFR1/FGFR3 IC50 ratio” value on FGFR3 enzyme (pre-incubated for 4 hours) was more than 5. In addition, the “FGFR4/FGFR3 IC50 ratio” value on FGFR3 enzyme (pre-incubated for 4 hours) is reported as more than 5.

Take `COc1cc(OC)c(F)c(N2Cc3cnc(-c4cnn(CCC5CCN(S(C)(=O)=O)CC5)c4)cc3C3(CC3)C2=O)c1F` [Example 148, 2′-(2,6-difluoro-3,5-dimethoxyphenyl)-6′-(1-(2-(1-(methylsulfonyl)piperidin-4-yl)ethyl)-1H-pyrazol-4-yl)-1′H-spiro[cyclopropane-1,4′-[2,7]naphthyridin]-3′(2′H)-one]: the IC50 against FGFR2 (pre-incubated for 4 hours) was 10 to 30 nM; at FGFR3 enzyme (setting [1]) it was less than 10 nM; against FGFR4 (pre-incubated for 4 hours) it was 10 to 30 nM; against FGFR1 (setting [2]), 30 to 200 nM. In addition, the “FGFR1/FGFR3 IC50 ratio” value on FGFR3 enzyme (pre-incubated for 4 hours) is more than 10. Moreover, the “FGFR4/FGFR3 IC50 ratio” value at FGFR3 enzyme (pre-incubated for 4 hours) is more than 3.

Take `CNC(=O)c1ccc(-c2cc3c(cn2)CN(c2c(F)c(OC)cc(OC)c2F)C(=O)C32CC2)cn1` [Example 18, 5-(2′-(2,6-difluoro-3,5-dimethoxyphenyl)-3′-oxo-2′,3′-dihydro-1′H-spiro[cyclopropane-1,4′-[2,7]naphthyridine]-6′-yl)-N-methylpicolinamide]: the IC50 is less than 10 nM against FGFR2 (pre-incubated for 4 hours), less than 10 nM at FGFR3 enzyme (setting [1]), 10 to 30 nM at FGFR4 (pre-incubated for 4 hours) and 10 to 30 nM on FGFR1 (setting [2]). Besides, the “FGFR1/FGFR3 IC50 ratio” value on FGFR3 enzyme (pre-incubated for 4 hours) is more than 5.

Consider `COc1cc(OC)c(F)c(N2Cc3cnc(-c4cn(C)nc4C)cc3N(C[C@H]3CCOC3)C2=O)c1F` [Example 108, (R)-3-(2,6-difluoro-3,5-dimethoxyphenyl)-7-(1,3-dimethyl-1H-pyrazol-4-yl)-1-((tetrahydrofuran-3-yl)methyl)-3,4-dihydropyrido[4,3-d]pyrimidin-2(1H)-one], for which the IC50 on FGFR2 (pre-incubated for 4 hours) lay within 10 to 30 nM; on FGFR3 enzyme (setting [1]), 10 to 30 nM; on FGFR4 (pre-incubated for 4 hours), 30 to 200 nM; against FGFR1 (setting [2]) it was 30 to 200 nM. Further, the “FGFR1/FGFR3 IC50 ratio” value on FGFR3 enzyme (pre-incubated for 4 hours) is recorded as more than 3. The “FGFR4/FGFR3 IC50 ratio” value at FGFR3 enzyme (pre-incubated for 4 hours) was more than 3.

As for `COc1cc(OC)c(F)c(N2Cc3cnc(-c4cn(C)nc4C)cc3N(C3CC3)C2=O)c1F` [Example 83, 1-cyclopropyl-3-(2,6-difluoro-3,5-dimethoxyphenyl)-7-(1,3-dimethyl-1H-pyrazol-4-yl)-3,4-dihydropyrido[4,3-d]pyrimidin-2(1H)-one], the half-inhibitory concentration (IC50) at FGFR2 (pre-incubated for 4 hours) was 30 to 200 nM; at FGFR3 enzyme (setting [1]), 10 to 30 nM; at FGFR4 (pre-incubated for 4 hours) it was more than 200 nM; at FGFR1 (setting [2]), 30 to 200 nM. The “FGFR1/FGFR3 IC50 ratio” value on FGFR3 enzyme (pre-incubated for 4 hours) is given as more than 5. In addition, on FGFR3 enzyme (pre-incubated for 4 hours), the “FGFR4/FGFR3 IC50 ratio” value is recorded as more than 5.

For `COc1cc(OC)c(F)c(N2Cc3cnc(-c4cn(C)nc4C)cc3N(c3ccc(S(C)(=O)=O)cc3)C2=O)c1F` [Example 98, 3-(2,6-difluoro-3,5-dimethoxyphenyl)-7-(1,3-dimethyl-1H-pyrazol-4-yl)-1-(4-(methylsulfonyl)phenyl)-3,4-dihydropyrido[4,3-d]pyrimidin-2(1H)-one], the concentration for half-maximal inhibition (IC50) lay in the range of 10 to 30 nM on FGFR2 (pre-incubated for 4 hours), 10 to 30 nM on FGFR3 enzyme (setting [1]), 30 to 200 nM against FGFR4 (pre-incubated for 4 hours) and 30 to 200 nM at FGFR1 (setting [2]). The “FGFR1/FGFR3 IC50 ratio” value at FGFR3 enzyme (pre-incubated for 4 hours) is more than 5. Also, on FGFR3 enzyme (pre-incubated for 4 hours), the “FGFR4/FGFR3 IC50 ratio” value is given as more than 10.

Consider `COC(=O)Nc1ccc(N2C(=O)N(c3c(F)c(OC)cc(OC)c3F)Cc3cnc(-c4cn(C)nc4C)cc32)cc1` [Example 123, Methyl 4-(3-(2,6-difluoro-3,5-dimethoxyphenyl)-7-(1,3-dimethyl-1H-pyrazol-4-yl)-2-oxo-3,4-dihydropyrido[4,3-d]pyrimidin-1(2H)-yl)phenylcarbamate], for which the IC50 is less than 10 nM against FGFR2 (pre-incubated for 4 hours), less than 10 nM at FGFR3 enzyme (setting [1]), 10 to 30 nM on FGFR4 (pre-incubated for 4 hours) and 30 to 200 nM against FGFR1 (setting [2]). For the same molecule, the “FGFR1/FGFR3 IC50 ratio” value on FGFR3 enzyme (pre-incubated for 4 hours) is reported as more than 5. In addition, the “FGFR4/FGFR3 IC50 ratio” value at FGFR3 enzyme (pre-incubated for 4 hours) was more than 3.

These data come from US9708318B2, “Bicyclic heterocycles as FGFR4 inhibitors” (Incyte Corporation, priority 2015, dated 2017).
